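Compound exposure: 48 hours, 5 concentrations, 96-well plates. The concentration for 50% growth inhibition is given as GI50. TGI is the concentration that stops growth completely.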
Key:
Experiment in all cases: inhibition of tumour cell growth, NCI panel, 48 h
[1] = system: DU-145 prostate
[2] = system: ACHN renal
[3] = system: MCF7 breast
[4] = system: TK-10 renal
[5] = system: HL-60(TB) leukemia
[6] = system: T-47D breast
[7] = system: HS 578T breast
[8] = system: HT29 colon
[9] = system: OVCAR-8 ovarian
[10] = system: CCRF-CEM leukemia
[11] = system: PC-3 prostate
[12] = system: HCT-116 colon
[13] = system: NCI-H460 lung
[14] = system: OVCAR-5 ovarian
[15] = system: HOP-62 NSCLC
[16] = system: RPMI-8226 leukemia
[17] = system: UACC-257 melanoma
[18] = system: MDA-MB-231 breast
[19] = system: RXF 393 renal
[20] = system: NCI-H23 lung
[21] = system: SK-MEL-28 melanoma
[22] = system: A498 renal
[23] = system: NCI-H226 lung
[24] = system: SK-MEL-5 melanoma
[25] = system: UO-31 renal
[26] = system: NCI/ADR-RES ovarian
[27] = system: SK-OV-3 ovarian
[28] = system: NCI-H522 lung
[29] = system: HOP-92 NSCLC
[30] = system: MDA-MB-435
[31] = system: SW-620 colon
[32] = system: 786-0 renal
[33] = system: IGROV1 ovarian
[34] = system: M14 melanoma
[35] = system: CAKI-1 renal
[36] = system: SF-539 CNS
[37] = system: A549 NSCLC
[38] = system: SNB-19 CNS
[39] = system: HCC-2998 colon
[40] = system: OVCAR-4 ovarian
[41] = system: COLO 205 colon
[42] = system: HCT-15 colon
[43] = system: MOLT-4 leukemia
[44] = system: U251 CNS
[45] = system: SF-268 CNS
[46] = system: BT-549 breast
[47] = system: K-562 leukemia
[48] = system: SN12C renal
[49] = system: KM12 colon
[50] = system: SF-295 CNS
[51] = system: EKVX NSCLC
[52] = system: SNB-75 CNS
[53] = system: UACC-62 melanoma

Question: What does the source list for `ClC(Cl)c1nc(-c2cccs2)n2nc(-c3ccccc3)cc2n1`?
Answer: GI50 [1]: 0.293 µM; TGI [1]: 0.77 µM; GI50 [2]: 0.274 µM; TGI [2]: 1.05 µM; GI50 [3]: 0.425 µM; TGI [3]: 3.53 µM; GI50 [4]: 3.23 µM; TGI [4]: 6.25 µM; GI50 [5]: 0.267 µM; TGI [5]: 1.31 µM; GI50 [6]: 1.51 µM; TGI [6]: 5.72 µM; GI50 [7]: 1.6 µM; TGI [7]: 4.71 µM; GI50 [8]: 0.355 µM; TGI [8]: 1.75 µM; GI50 [9]: 1.15 µM; TGI [9]: > 100 µM; GI50 [10]: 5.92 µM; TGI [10]: > 100 µM; GI50 [11]: 1.18 µM; TGI [11]: 3.75 µM; GI50 [12]: 1.3 µM; TGI [12]: 6.87 µM; GI50 [13]: 0.299 µM; TGI [13]: 0.974 µM; GI50 [14]: 1.74 µM; TGI [14]: 5.12 µM; GI50 [15]: 0.419 µM; TGI [15]: 2.99 µM; GI50 [16]: 0.472 µM; TGI [16]: 2.56 µM; GI50 [17]: 2.4 µM; TGI [17]: 5.68 µM; GI50 [18]: 0.5 µM; TGI [18]: 2.75 µM; GI50 [19]: 0.477 µM; TGI [19]: 1.69 µM; GI50 [20]: 1.47 µM; TGI [20]: 4.44 µM; GI50 [21]: 1.69 µM; TGI [21]: 3.22 µM; GI50 [22]: 1.25 µM; TGI [22]: 2.53 µM; GI50 [23]: > 100 µM; TGI [23]: > 100 µM; GI50 [24]: > 100 µM; TGI [24]: > 100 µM; GI50 [25]: 1.19 µM; TGI [25]: 4.52 µM; GI50 [26]: 0.912 µM; TGI [26]: 4.09 µM; GI50 [27]: 1.89 µM; TGI [27]: 6.66 µM; GI50 [28]: > 100 µM; TGI [28]: > 100 µM; GI50 [29]: 0.444 µM; TGI [29]: 2.48 µM; GI50 [30]: 1.47 µM; TGI [30]: 2.99 µM; GI50 [31]: 0.681 µM; TGI [31]: 3.49 µM; GI50 [32]: 2.37 µM; TGI [32]: > 100 µM; GI50 [33]: 2.65 µM; TGI [33]: > 100 µM; GI50 [34]: 4.35 µM; TGI [34]: > 100 µM; GI50 [35]: 1.13 µM; TGI [35]: 4.01 µM; GI50 [36]: 1.1 µM; TGI [36]: 2.94 µM; GI50 [37]: 0.68 µM; TGI [37]: 2.73 µM; GI50 [38]: 0.635 µM; TGI [38]: 3.71 µM; GI50 [39]: 0.464 µM; TGI [39]: 1.74 µM; GI50 [40]: 2.02 µM; TGI [40]: 5.06 µM; GI50 [41]: 0.476 µM; TGI [41]: 2.07 µM; GI50 [42]: 1.06 µM; TGI [42]: 3.63 µM; GI50 [43]: 2.82 µM; TGI [43]: > 100 µM; GI50 [44]: 0.326 µM; TGI [44]: 1.82 µM; GI50 [45]: 1.6 µM; TGI [45]: 5.18 µM; GI50 [46]: 8.73 µM; TGI [46]: > 100 µM; GI50 [47]: 2.13 µM; TGI [47]: > 100 µM; GI50 [48]: > 100 µM; TGI [48]: > 100 µM; GI50 [49]: 2.48 µM; TGI [49]: 8.34 µM; GI50 [50]: 0.801 µM; TGI [50]: 3.39 µM

Question: What does the source list for `COC[C@]12CCC(C)(C)C[C@H]1C1=CC[C@@H]3[C@@]4(C)CCCNC(C)(C)[C@@H]4CC[C@@]3(C)[C@]1(C)CC2`?
Answer: GI50 [1]: 1.81 µM; TGI [1]: 3.37 µM; GI50 [2]: 1.73 µM; TGI [2]: 3.12 µM; GI50 [3]: 1.25 µM; TGI [3]: 2.82 µM; GI50 [4]: 1.81 µM; TGI [4]: 3.53 µM; GI50 [5]: 1.43 µM; TGI [5]: 3.87 µM; GI50 [51]: 1.64 µM; TGI [51]: 3.12 µM; GI50 [10]: 1.26 µM; TGI [10]: 3.19 µM; GI50 [11]: 1.31 µM; TGI [11]: 2.64 µM; GI50 [12]: 1.09 µM; TGI [12]: 2.48 µM; GI50 [14]: 1.67 µM; TGI [14]: 3.13 µM; GI50 [16]: 1.31 µM; TGI [16]: 3.65 µM; GI50 [17]: 1.91 µM; TGI [17]: 3.82 µM; GI50 [18]: 1.89 µM; TGI [18]: 3.62 µM; GI50 [19]: 1.37 µM; TGI [19]: 2.88 µM; GI50 [21]: 1.67 µM; TGI [21]: 3.07 µM; GI50 [22]: 1.71 µM; TGI [22]: 3.23 µM; GI50 [24]: 1.58 µM; TGI [24]: 3.05 µM; GI50 [25]: 1.41 µM; TGI [25]: 2.79 µM; GI50 [26]: 1.73 µM; TGI [26]: 3.48 µM; GI50 [27]: 1.8 µM; TGI [27]: 3.39 µM; GI50 [29]: 1.17 µM; TGI [29]: 2.58 µM; GI50 [30]: 1.66 µM; TGI [30]: 3.13 µM; GI50 [32]: 1.61 µM; TGI [32]: 3.3 µM; GI50 [35]: 1.82 µM; TGI [35]: 3.56 µM; GI50 [36]: 1.56 µM; TGI [36]: 3.05 µM; GI50 [38]: 1.76 µM; TGI [38]: 3.3 µM; GI50 [39]: 1.31 µM; TGI [39]: 2.76 µM; GI50 [40]: 1.7 µM; TGI [40]: 3.34 µM; GI50 [42]: 1.41 µM; TGI [42]: 2.87 µM; GI50 [52]: 1.53 µM; TGI [52]: 3.41 µM; GI50 [53]: 1.62 µM; TGI [53]: 3.12 µM; GI50 [46]: 1.68 µM; TGI [46]: 3.11 µM; GI50 [47]: 0.35 µM; TGI [47]: 4.65 µM; GI50 [48]: 1.51 µM; TGI [48]: 3.07 µM; GI50 [49]: 1.79 µM; TGI [49]: 3.48 µM; GI50 [50]: 1.73 µM; TGI [50]: 3.21 µM
